Assay results: patent publication US11376269B2, “Pharmaceutical compositions for the treatment of chemoresistant acute myeloid leukemia (AML)” (INSERM (INSTITUT NATIONAL DE LA SANTÉ ET DE LA RECHERCHE …, priority 2016, dated 2022)

What was measured:
MOLM14 cells = test: Cell viability of MOLM14 cells, AnnexinV/7AAD-based flow cytometry assay; design: species or system human
Method: (§1) FIG. 3. In vitro study of the CD39 protein expression in MOLM14 AML cells after cytarabine (AraC) treatment in normoxia (21%) and hypoxia (1%). (A) Western analysis of the expression of HIF-1alpha, VDAC, CD39, P2Y13, pATF2 and HSP90 (as loading control) in MOLM14 cells after normoxia (21% O2) or hypoxia (1% O2) for 24 h, 48 h or 72 h. Each lane contained 30 μg of protein. (B-C-D) MOLM14 cells were treated with AraC (2 μM, IC50 in normoxia) for 48 h either in normoxia (21% O2) or hypoxia (1% O2). Flow cytometric analyses were perform to assess cell viability (B), CD39^+ expression (C-D). The results are representative of at least three independent experiments. The ATPase activity of CD39 in MOLM14 cells after Ara-C treatment was assessed and the concentration of non-hydrolyzed extracellular ATP was determined using the ATPlite assay (PerkinElmer) (E).
(§2) FIG. 4. In vitro potentiatingeffect of ARL67156 (CD39 inhibitor) with cytarabine (AraC) in MOLM14 cell line. (A-B) MOLM14 cells were either treated or not with 2 μM Ara-C, 100 μmol/L ARL or 250 μmol/L of another CD39 inhibitor, POM-1, for 48 h. Cell viability was assessed using AnnexinV/7AAD-based flow cytometry assay. (C) U937 AML cell line was either treated or not with 0.5 μM Ara-C or 100 μmol/L ARL. The percent of viable cells was analyzed using AnnexinV/7AAD-based flow cytometry assay.
(§3) In vitro potentiating effect of CD39 inhibitor with cytarabine in MOLM14 cell line. In order to explore the effect of CD39 onto the chemoresistance to AraC in AML cell lines in vitro, we first tested the consequence of CD39 inhibition using an ecto-ATPase inhibitor ARL67156. […] High ADP and/or P2YR13 activation might be involved into this compensatory and protective mechanism.

U937 AML cell line = test: Cell viability of U937 AML cell line, AnnexinV/7AAD-based flow cytometry assay; design: species or system human; settings: U937, 0.5 μM Ara-C, 100 μmol/L ARL
Method: as §2, §3

CD39 [1] = test: ATPase activity of CD39 in MOLM14 cells, non-hydrolyzed extracellular ATP by ATPlite assay; format: cell-based, human; settings: MOLM14 after AraC, normoxic and hypoxic conditions
Method: as §1, with “(B-C-D) MOLM14 cells were treated with AraC (2 μM, IC50 in normoxia) for 48 h either in normoxia (21% O2) or hypoxia (1% O2).” left out, “The results are representative of at least three independent experiments.” left out
(§4) Then, we have established an AML cell line model to further study this mechanism. Using MOLM14 AML cell lines and hypoxic condition (1% versus 21% O2), we have analyzed the CD39 expression and ATP-hydrolyzing activity (FIG. 3).

AML blasts = test: Flow cytometry of peripheral blood of 45 AML patients at D35 post-chemotherapy versus diagnosis; format: in vivo, human; settings: day 35 post-AraC versus diagnosis
Method: (§5) FIG. 2. Validation of the increase in CD39 after cytarabine (AraC) in 9 patient-derived xenografts, 45 AML patients and 2 cell line-derived xenografts. (A) The total number of human AML cells expressing CD45, CD33 and CD44 in 9 patient-derived xenograft (PDX) was analyzed and quantified using flow cytometry in AraC-treated xenografted mice compared to PBS-treated xenografted mice in bone marrow and spleen. (B) Flow cytometric analysis of the percent of CD34^+CD38^− immature cell population was performed in human viable residual CD45^+CD33^+ AML cells from AraC-treated xenografted mice compared to PBS-treated xenografted mice in bone marrow. (C) The percent of CD39^+ cells in the bulk population and CD34^+CD38^− immature cell population of human viable residual CD45^+CD33^+ AML cells was assessed in AraC-treated xenografted mice compared to PBS-treated xenografted mice in bone marrow by flow cytometry. […]
(§6) Validation of the increase in CD39 expression in 9 patient-derived xenograft (PDX) models treated with cytarabine and in 45 AML patients at D35 compared to diagnosis. […] Then, we analyzed CD39 expression in two AML cell line-derived xenografts, which confirmed our previous results in patients and PDXs.

CD39 [2] = test: CD39 expression in MOLM14 cells after AraC in normoxia and hypoxia, flow cytometry; format: cell-based, human; settings: MOLM14, AraC 2 μM, 48 h, normoxic and hypoxic conditions
Method: as §1, with “(B-C-D) MOLM14 cells were treated with AraC (2 μM, IC50 in normoxia) for 48 h either in normoxia (21% O2) or hypoxia (1% O2).” left out, “The results are representative of at least three independent experiments.” left out
as §4

U937 = U937 (sensitive) cell line-derived xenograft (CLDX); format: in vivo, mice
Method: as §5, §6

[3] = test system: primary AML cells from patients; test: NSG mice xenografted with primary AML cells from patients (PDX), flow cytometry of residual cells; format: in vivo
Method: FIG. 2. Validation of the increase in CD39 after cytarabine (AraC) in 9 patient-derived xenografts, 45 AML patients and 2 cell line-derived xenografts. (A) The total number of human AML cells expressing CD45, CD33 and CD44 in 9 patient-derived xenograft (PDX) was analyzed and quantified using flow cytometry in AraC-treated xenografted mice compared to PBS-treated xenografted mice in bone marrow and spleen. (B) Flow cytometric analysis of the percent of CD34^+CD38^− immature cell population was performed in human viable residual CD45^+CD33^+ AML cells from AraC-treated xenografted mice compared to PBS-treated xenografted mice in bone marrow. (C) The percent of CD39^+ cells in the bulk population and CD34^+CD38^− immature cell population of human viable residual CD45^+CD33^+ AML cells was assessed in AraC-treated xenografted mice compared to PBS-treated xenografted mice in bone marrow by flow cytometry. (D-E-F) Similarly, flow cytometric analyses of 45 AML patients in peripheral blood at D35 (post-chemotherapy) and diagnosis to assess the percentage of blasts (D), of CD34^+CD38^− immature cells (E), and of CD39^+ residual cells in both total blasts (bulk) and CD34^+CD38^− population (F). (G-H) Flow cytometry analysis of 1 resistant cell line (MOLM14) and 1 sensitive cell line (U937)-derived xenograft (CLDX) to assess the total cell tumor burden of human viable AML cells in AraC- and PBS-treated CLDX (G), the percent of CD39^+ cells (H).
Until recently, mouse models of AML have been extensively used to characterize the nature and origin of LSCs (in part by our group: Sanchez et al. 2009. Sarry et al. 2011), but less frequently used to study their chemoresistance and miminum residual disease in vivo, an approach that is crucial to improve therapeutic outcome of AML patients. Thus, we tested and established an appropriate dose and regimen for use of AraC as baseline cytotoxic in our NSG mice xenografted with primary AML cells from patients seen at diagnosis or relapse of disease. We have access to a large resource of primary samples through our Biobank of the Hematology Clinical Department of the Oncopole Hospital in Toulouse (HIMIP, INSERM-U1037, ˜150 patients newly diagnosed/year) and in collaboration with Drs Gwen Danet-Desnoyers and Martin Carroll (University of Pennsylvania, Pa., USA). Then, we analyzed human AML cells surviving after AraC treatment over time. […] CANCER DISCOVERY. 2017).
Based on this model and the current hypothesis that AraC-resistant cells are rare, replicatively dormant and well adapted to hypoxic conditions (Ishikawa et al. 2007; Raaijmakers, 2011; Wilson and Hay, 2011), we have further analyzed all of these characteristics in AraC-treated patient-xenografted mice. We have first confirmed that CD34^+CD38^− cell population is increased post-AraC chemotherapy in residual AML cells. […] Finally, we have identified a signature of 15 genes (amongst of 350 genes, including CD39/ENTPD1 and P2Y13), that are the most differentially expressed in all of the three AML patient-derived xenografts after AraC treatment as compared to control samples using our in vivo PDX models coupled to a gene expression analysis (FIG. 1a).
Validation of the increase in CD39 expression in 9 patient-derived xenograft (PDX) models treated with cytarabine and in 45 AML patients at D35 compared to diagnosis. We first examined the effect of AraC on CD39 expression in residual viable AML cells from our NSG model xenografted with primary AML cells from 9 patients (FIG. 2a). […] Then, we analyzed CD39 expression in two AML cell line-derived xenografts, which confirmed our previous results in patients and PDXs.

[4] = AraC-treated patient-xenografted mice

Row | SMILES | induction of cell death alone (MOLM14 cells; MOLM14, 100 μmol/L ARL, 48 h, in absence of AraC) | potentiating effect with AraC on cell death (MOLM14 cells; MOLM14, with 2 μM Ara-C, 100 μmol/L ARL or 250 μmol/L POM-1, 48 h) | potentiation of the effect of AraC in inducing cell death (U937 AML cell line) | remaining ATP (ATP-hydrolyzing activity of CD39) (CD39 [1]) | IC50 (MOLM14 cells; Homo sapiens, MOLM-14, MOLM14 cells, normoxia (21% O2)) [nM] | CD34+CD38− population and CD39 cells in residual bulk and immature populations (AML blasts) | percent and expression of CD39 in residual viable cells (CD39 [2]) | total cell tumor burden in bone marrow and spleen (U937) | CD39 expression (U937; post-AraC versus vehicle) | total cell tumor burden in bone marrow and spleen ([3]; 9 PDX, AraC-treated versus PBS-treated mice) | percent of CD39 cells in bulk and immature CD34+CD38− population ([3]; 9 PDX, AraC-treated versus control mice) | CD34+CD38− population in residual AML cells ([3]; 9 PDX, post-AraC, bone marrow) | killing of cycling and quiescent cells and LSCs in vivo [3, 4] | type of cell death induced in vivo [3, 4] | peripheral engraftment and total cell tumor burden ([3]; all patients tested, PDX in NSG mice) | duration of response ([3]; variable from patient to patient, PDX in NSG mice)
1 | CCN(CC)c1ncnc2c1ncn2[C@@H]1O[C@H](COP(=O)(O)OP(=O)(O)C(Br)(Br)P(=O)(O)O)[C@@H](O)[C@H]1O [ARL67156] | did not induce cell death alone | potentiatingeffect | did not potentiate the effect of AraC in inducing cell death |  |  |  |  |  |  |  |  |  |  |  |  | 
2 | Nc1ccn([C@@H]2O[C@H](CO)[C@@H](O)[C@@H]2O)c(=O)n1 [AraC, cytarabine] |  |  |  | significant decrease | 2000 | increase | increased the percent and expression of CD39 | significant cytoreduction | increases | significant cytoreduction | increase in percent of CD39 cells | increase | equally kills both cycling and quiescent cells as well as LSCs in vivo | ROS-/MMP-dependent apoptotic cell death | significant cytoreduction | 2-7 weeks
